Here are results for five compounds from publication PMC5540273, “Progress towards a public chemogenomic set for protein kinases and a call for contributions” (PLoS ONE, 2017).

Holding throughout (experiment): KINOMEscan competition binding
For one test, the target named is T1, EPHA3 (Homo sapiens, UniProt P29320).
T1 sequence (P29320 21-983): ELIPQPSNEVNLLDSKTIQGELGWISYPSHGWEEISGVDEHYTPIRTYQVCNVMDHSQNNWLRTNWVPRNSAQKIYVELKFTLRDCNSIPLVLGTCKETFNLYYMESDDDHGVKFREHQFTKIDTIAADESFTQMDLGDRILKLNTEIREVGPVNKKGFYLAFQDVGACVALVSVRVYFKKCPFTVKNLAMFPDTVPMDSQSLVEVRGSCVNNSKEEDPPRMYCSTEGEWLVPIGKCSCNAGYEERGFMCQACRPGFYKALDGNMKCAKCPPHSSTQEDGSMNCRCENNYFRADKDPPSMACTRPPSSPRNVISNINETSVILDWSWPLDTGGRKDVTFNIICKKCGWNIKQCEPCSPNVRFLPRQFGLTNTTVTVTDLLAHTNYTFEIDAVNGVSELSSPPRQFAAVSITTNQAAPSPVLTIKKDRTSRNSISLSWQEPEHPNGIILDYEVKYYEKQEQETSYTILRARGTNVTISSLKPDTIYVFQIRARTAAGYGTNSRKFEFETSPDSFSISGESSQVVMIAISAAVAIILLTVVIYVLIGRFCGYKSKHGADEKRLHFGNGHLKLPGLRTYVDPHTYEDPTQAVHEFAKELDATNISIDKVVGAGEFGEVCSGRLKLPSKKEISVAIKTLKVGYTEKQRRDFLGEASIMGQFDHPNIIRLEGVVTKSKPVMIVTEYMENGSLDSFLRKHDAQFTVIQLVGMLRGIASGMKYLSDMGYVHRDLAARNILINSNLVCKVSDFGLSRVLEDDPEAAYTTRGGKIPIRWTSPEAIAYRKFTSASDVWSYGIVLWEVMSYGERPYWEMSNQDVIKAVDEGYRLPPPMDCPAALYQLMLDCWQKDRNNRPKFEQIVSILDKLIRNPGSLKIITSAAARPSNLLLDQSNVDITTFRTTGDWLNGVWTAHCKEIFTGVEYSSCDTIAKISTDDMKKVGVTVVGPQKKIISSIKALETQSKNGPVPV
As to conditions: read-out: %Inh EPHA3.

In another test the target is DAPK3 (Homo sapiens, UniProt O43293). As to conditions: read-out: %Inh DAPK3.
For another test, the target named is CSNK1A1 (Homo sapiens, UniProt P48729). As to conditions: read-out: %Inh CSNK1A1.
The target of the next test is T2, ITK (Homo sapiens, UniProt Q08881).
T2 sequence (Q08881 1-620): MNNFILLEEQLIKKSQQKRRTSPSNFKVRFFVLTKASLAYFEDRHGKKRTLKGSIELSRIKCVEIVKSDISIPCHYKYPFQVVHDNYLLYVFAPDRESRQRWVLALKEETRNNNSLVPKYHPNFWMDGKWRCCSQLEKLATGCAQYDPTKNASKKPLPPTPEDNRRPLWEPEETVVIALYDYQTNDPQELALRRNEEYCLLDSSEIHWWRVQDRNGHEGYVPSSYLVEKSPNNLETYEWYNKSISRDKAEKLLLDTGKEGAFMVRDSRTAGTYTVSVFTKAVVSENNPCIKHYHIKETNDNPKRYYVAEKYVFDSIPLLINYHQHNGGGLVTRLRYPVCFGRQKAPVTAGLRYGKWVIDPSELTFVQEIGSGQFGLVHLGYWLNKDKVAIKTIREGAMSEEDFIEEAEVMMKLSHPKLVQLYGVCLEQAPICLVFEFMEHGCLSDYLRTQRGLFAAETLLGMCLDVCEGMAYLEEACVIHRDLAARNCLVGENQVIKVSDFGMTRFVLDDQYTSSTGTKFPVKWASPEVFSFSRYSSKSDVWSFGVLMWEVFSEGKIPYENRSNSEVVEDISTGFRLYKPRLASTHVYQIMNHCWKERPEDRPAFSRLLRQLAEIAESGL
As to conditions: read-out: %Inh ITK.

In test [1] the target is JAK3(JH1domain-catalytic) (Homo sapiens, UniProt P52333). As to conditions: read-out: %Inh JAK3(JH1domain-catalytic).
A further test deals with T3, GRK2 (Homo sapiens, UniProt P25098).
T3 sequence (P25098 1-689): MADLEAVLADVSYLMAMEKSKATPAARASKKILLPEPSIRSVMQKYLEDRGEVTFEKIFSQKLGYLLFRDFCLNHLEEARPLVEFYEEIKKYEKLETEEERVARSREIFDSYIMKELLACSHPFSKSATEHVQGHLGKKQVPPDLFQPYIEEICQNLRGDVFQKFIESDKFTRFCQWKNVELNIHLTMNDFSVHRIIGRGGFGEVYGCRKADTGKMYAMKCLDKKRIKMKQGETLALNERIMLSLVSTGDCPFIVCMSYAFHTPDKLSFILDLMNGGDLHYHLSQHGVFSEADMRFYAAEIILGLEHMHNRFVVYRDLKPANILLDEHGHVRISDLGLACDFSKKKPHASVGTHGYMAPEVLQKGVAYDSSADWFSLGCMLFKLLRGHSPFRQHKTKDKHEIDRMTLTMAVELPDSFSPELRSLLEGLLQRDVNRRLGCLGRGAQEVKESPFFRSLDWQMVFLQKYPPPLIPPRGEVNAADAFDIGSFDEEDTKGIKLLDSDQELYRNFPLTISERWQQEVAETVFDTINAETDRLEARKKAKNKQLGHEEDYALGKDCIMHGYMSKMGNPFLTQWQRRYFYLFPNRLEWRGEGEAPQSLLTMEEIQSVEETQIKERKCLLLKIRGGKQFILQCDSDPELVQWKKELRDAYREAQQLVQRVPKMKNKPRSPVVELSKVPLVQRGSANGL
As to conditions: read-out: %Inh GRK2.

The target of another test is JNK1 (Homo sapiens, UniProt P45983). As to conditions: read-out: %Inh JNK1.
A further test addresses DAPK2 (Homo sapiens, UniProt Q9UIK4). As to conditions: read-out: %Inh DAPK2.
For the next test, the target named is ACVR2A (Homo sapiens, UniProt P27037). As to conditions: read-out: %Inh ACVR2A.
ACVR2A, sequence (P27037 20-513): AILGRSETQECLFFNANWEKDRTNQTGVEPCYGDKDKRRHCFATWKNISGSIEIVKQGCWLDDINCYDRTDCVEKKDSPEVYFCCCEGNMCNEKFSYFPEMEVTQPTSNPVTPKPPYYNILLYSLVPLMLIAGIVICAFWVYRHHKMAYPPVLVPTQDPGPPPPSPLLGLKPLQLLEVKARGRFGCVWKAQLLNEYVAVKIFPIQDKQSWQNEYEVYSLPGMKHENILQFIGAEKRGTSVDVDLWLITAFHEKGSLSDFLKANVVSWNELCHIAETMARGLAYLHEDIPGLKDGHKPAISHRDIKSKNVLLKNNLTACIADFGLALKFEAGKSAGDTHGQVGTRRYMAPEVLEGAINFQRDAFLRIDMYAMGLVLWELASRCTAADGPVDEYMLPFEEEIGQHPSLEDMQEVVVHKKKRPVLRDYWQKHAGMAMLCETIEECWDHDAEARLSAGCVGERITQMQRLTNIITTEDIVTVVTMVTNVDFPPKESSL

CSNK1A1, sequence (P48729 whole entry): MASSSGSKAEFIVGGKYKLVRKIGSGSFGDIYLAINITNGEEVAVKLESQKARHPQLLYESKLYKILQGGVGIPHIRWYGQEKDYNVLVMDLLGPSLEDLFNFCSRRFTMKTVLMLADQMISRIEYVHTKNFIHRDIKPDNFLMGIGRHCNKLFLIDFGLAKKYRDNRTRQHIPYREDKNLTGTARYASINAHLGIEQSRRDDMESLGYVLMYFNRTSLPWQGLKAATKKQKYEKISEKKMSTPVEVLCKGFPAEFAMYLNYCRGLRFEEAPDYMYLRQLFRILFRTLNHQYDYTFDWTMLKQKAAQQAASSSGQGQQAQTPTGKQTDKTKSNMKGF
DAPK3, sequence (O43293 whole entry): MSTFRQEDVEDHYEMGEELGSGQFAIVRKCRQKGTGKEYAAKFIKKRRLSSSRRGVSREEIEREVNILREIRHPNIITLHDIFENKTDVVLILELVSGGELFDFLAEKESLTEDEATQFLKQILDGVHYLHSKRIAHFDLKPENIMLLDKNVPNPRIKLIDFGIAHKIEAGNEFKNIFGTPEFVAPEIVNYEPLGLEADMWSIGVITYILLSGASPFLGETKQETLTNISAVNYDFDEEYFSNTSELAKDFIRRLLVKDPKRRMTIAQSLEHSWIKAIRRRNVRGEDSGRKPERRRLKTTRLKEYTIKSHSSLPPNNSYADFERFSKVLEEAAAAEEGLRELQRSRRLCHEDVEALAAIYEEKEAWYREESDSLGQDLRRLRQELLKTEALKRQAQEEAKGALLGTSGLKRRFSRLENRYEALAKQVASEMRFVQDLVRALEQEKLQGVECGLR
JAK3(JH1domain-catalytic), sequence (P52333 813-1124 limits assumed): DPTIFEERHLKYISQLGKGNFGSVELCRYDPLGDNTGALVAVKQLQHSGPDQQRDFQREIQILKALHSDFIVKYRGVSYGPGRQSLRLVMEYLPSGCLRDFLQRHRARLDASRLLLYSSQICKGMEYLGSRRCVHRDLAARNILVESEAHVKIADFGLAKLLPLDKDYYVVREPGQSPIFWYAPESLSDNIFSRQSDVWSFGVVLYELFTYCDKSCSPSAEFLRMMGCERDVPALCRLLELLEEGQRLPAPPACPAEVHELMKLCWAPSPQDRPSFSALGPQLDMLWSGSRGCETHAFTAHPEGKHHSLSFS
JNK1, sequence (P45983 whole entry): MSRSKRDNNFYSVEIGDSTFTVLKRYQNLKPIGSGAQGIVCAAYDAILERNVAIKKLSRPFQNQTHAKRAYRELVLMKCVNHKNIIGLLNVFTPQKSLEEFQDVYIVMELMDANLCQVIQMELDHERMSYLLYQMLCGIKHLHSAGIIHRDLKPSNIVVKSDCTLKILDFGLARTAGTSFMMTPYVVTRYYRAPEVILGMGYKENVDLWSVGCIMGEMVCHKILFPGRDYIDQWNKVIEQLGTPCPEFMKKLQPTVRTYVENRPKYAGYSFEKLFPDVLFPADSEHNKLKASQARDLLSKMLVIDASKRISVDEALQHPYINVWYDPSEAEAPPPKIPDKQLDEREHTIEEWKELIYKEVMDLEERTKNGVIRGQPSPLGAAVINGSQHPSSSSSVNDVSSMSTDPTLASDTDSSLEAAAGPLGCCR
DAPK2, sequence (Q9UIK4 whole entry): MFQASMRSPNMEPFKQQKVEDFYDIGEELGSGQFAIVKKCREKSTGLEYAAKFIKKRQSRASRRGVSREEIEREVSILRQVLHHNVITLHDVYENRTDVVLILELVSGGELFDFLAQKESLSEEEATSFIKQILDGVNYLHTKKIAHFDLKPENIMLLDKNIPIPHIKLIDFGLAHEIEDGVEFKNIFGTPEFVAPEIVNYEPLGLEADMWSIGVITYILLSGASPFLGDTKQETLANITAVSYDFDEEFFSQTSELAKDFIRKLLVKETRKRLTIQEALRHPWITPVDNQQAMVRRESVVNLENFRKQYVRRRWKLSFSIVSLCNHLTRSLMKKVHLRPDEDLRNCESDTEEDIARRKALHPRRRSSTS

As to `O=c1cc(N2CCOCC2)nc2n(Cc3cccc(Cl)c3Cl)c(C3CC3)nn12` [UNC10225469A], the inhibition at 1 µM at EPHA3 came out at 0%; at DAPK3, 6%; at CSNK1A1 it was 0%; on ITK it was 4%; in test [1] it was 0%; at GRK2 it was 0%. The inhibition at 1 µM at JNK1 stood at 19%; at DAPK2, 12%; at ACVR2A it was 0%.
For `COc1cccc(OC)c1C(=O)Nc1cccc(-c2nn3ccccc3c2-c2ccnc(Nc3cccc(F)c3)n2)c1` [UNC10225310A], the inhibition at 1 µM at EPHA3 is 0%; on DAPK3, 0%; on CSNK1A1, 25%; at ITK, 93.8%; in [1], 0%; at GRK2, 0%. Further, the inhibition at 1 µM was 44% at JNK1, 6% on DAPK2 and 7% on ACVR2A.
For the compound `CS(=O)(=O)Cc1ccc(Nc2nccc(-c3c(-c4cccc(NC(=O)C5CCCCC5)c4)nn4ncccc34)n2)cc1` [UNC10225159A], the inhibition at 1 µM is 16% at EPHA3; 0% on DAPK3; 7% on CSNK1A1; 6% on ITK; 43% in [1]; 44% at GRK2. The values for the inhibition at 1 µM on JNK1, on DAPK2 and on ACVR2A were 43%, 9% and 0%, respectively.
`Cc1ccc(NC(=O)Nc2cccc(C(F)(F)F)c2)cc1` [UNC10225187A]: the inhibition at 1 µM on EPHA3 worked out at 0%; at DAPK3, 24%; at CSNK1A1 it was 0%; on ITK it was 12%; in [1], 0%; on GRK2, 0%. For the same compound, the figures for the inhibition at 1 µM on JNK1, on DAPK2 and on ACVR2A were 58%, 3% and 2%, respectively.
Consider `Cn1cc(-c2cnc(N)c3c(-c4ccc5c(c4)CCN5C(=O)Cc4ccccc4)csc23)cn1` [UNC10225012A], for which the inhibition at 1 µM is 0% at EPHA3; 7% on DAPK3; 21% at CSNK1A1; 23% at ITK; 0% in [1]; 0% at GRK2. For the same compound, the inhibition at 1 µM is 13% at JNK1, 21% at DAPK2 and 0% at ACVR2A.
